In this test the target is Potassium voltage-gated channel subfamily A member 3 (Homo sapiens, UniProt P22001). The test can be described thus: Displacement of [125I]- ChTX from human T cell voltage-gated potassium channel subunit Kv1.3. Format: cell-based.
Chain of Potassium voltage-gated channel subfamily A member 3 (P22001 whole entry): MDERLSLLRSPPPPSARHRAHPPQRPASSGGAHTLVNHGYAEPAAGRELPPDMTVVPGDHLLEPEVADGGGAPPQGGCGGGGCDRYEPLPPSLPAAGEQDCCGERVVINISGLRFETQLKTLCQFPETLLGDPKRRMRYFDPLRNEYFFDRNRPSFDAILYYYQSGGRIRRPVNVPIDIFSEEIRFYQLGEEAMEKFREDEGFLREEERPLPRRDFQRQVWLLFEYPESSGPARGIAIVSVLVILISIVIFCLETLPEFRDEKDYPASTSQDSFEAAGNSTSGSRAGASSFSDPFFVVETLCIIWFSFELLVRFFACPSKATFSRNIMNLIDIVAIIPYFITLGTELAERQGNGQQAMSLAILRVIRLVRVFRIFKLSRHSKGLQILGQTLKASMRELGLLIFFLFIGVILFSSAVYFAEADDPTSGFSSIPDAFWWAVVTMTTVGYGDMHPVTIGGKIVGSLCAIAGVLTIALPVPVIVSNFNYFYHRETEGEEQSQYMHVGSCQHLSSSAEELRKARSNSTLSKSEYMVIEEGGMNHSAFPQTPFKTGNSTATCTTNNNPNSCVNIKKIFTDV

As to `CCCNC(=O)c1cc(/C=C/CCc2ccccc2)ccc1-c1ccc(Cl)cc1`, the IC50 came out at 4 µM.

For the compound `CCCNC(=O)c1cc(/C=C/c2ccc(F)cc2)ccc1-c1ccc(Cl)cc1`, the IC50 was 9.7 µM.

On to `CC(C)NC(=O)c1cc(/C=C/c2cccc(Cl)c2)ccc1-c1ccc(Cl)cc1`, for which the IC50 is 10.1 µM. The IC50 values of the last two compounds are within 1.5-fold of each other.

The compound `NC(N)=NNC(=O)c1cc(/C=C/c2ccc(F)cc2)ccc1-c1ccc(Cl)cc1` had an IC50 of 3.9 µM.

Turning to `CC(C)NC(=O)c1cc(/C=C/c2ccc(Cl)c(F)c2)ccc1-c1ccc(Cl)cc1`, the IC50 was determined as 3.7 µM.

Take `CCCCNC(=O)c1cc(/C=C/c2ccccc2F)ccc1-c1ccc(Cl)cc1`: the IC50 came out at 8 µM. Compared with the last compound, the IC50 is about 2.2-fold higher.

`CCCCC/N=c1\ccn(Cc2ccccc2)c2ccccc12` [CP-339818]: the IC50 came to 0.2 µM.

`CC(C)NC(=O)c1cc(/C=C/Cc2ccccc2)ccc1-c1ccc(Cl)cc1` showed a concentration for half-maximal inhibition (IC50) of 5.6 µM. Compared with the last compound, the IC50 is about 28-fold higher.

Consider `CC(C)NC(=O)c1cc(/C=C/c2ccc(OCc3ccccc3)cc2)ccc1-c1ccc(Cl)cc1`, for which the IC50 is 9.9 µM.

For `CCCCNC(=O)c1cc(/C=C/Cc2ccccc2)ccc1-c1ccc(Cl)cc1`, the IC50 was found to be 6.1 µM. Against the preceding compound, the IC50 is about 1.6-fold lower.

In turn, `CNC(=O)c1cc(/C=C/c2ccc(OCc3ccccc3)c(OCc3ccccc3)c2)ccc1-c1ccc(Cl)cc1` came in with an IC50 of 2.9 µM.

Regarding `CCNC(=O)c1cc(/C=C/CCc2ccccc2)ccc1-c1ccc(Cl)cc1`, the IC50 amounted to 3.2 µM.

As for `CCCNC(=O)c1cc(/C=C/Cc2ccccc2)ccc1-c1ccc(Cl)cc1`, the IC50 was determined as 5.8 µM.
